{"source": "patent US4609640A", "about": "“Preparation having excellent absorption property” (priority 1981, dated 1986)", "conditions": "rat, in vivo", "procedure": "Subsequently, these samples were administered to Wistar-strain rats as shown below and quantities of Cephalothin disappeared by absorption were measured.\nIn the experiment, Wistar-strain male rats, weighing 250 to 300 g, were narcotized with pentobarbital (50 mg/kg) and thereafter subjected to hypoabdominal incision for a first cannulation at a position about 1.5 cm from the anus and also another cannulation at a position 5 cm above the first cannulation. Subsequently, the rectum was internally washed with about 20 ml of isotonic sodium chloride solution kept at 38° C., and each sample was circulated at a flow rate of 2 ml/minute for 5 minutes to make the concentration in the system constant. Then, 6 ml of each sample was circulated at a flow rate of 2 ml/minute, and samples each of 0.05 ml were collected at intervals of 10 minutes. Each sample was diluted and the quantity of Cephalothin disappeared was determined by UV-spectrophotometer or high-speed liquid chromatography.", "data": [{"substance": "pectinic acid", "values": [{"measurement": "absorption of Cephalothin", "result": "improves remarkably absorption of Cephalothin"}, {"measurement": "absorption of Cephalothin under hyper tonic conditions", "result": "further improvement"}]}]}
